Patent publication US11939340B2, “CDK inhibitors and their use as pharmaceuticals” (Prelude Therapeutics Incorporated, priority 2022, dated 2024)

Tests used:
[1] = target: T1, CDK4/Cyclin D1 (Homo sapiens, UniProt P11802); experiment: CDK4/CyclinD1 Enzymatic Activity Assay (TR-FRET); type: biochemical; settings: CDK4/CyclinD1 1 nM, ATP 2 mM, read-out: CDK4_D1 IC50
T1 construct: purchased ProQinase; host or cells: insect cell
Procedure: CDK4/CyclinD1 Enzymatic Activity Assay
The inhibitory activity of compounds was evaluated in vitro using TR-FRET assay with white 384-well low volume microplate (Greiner Bio-One). CDK4/Cyclin D1 catalyzed phosphorylation of peptide in the presence and absence of compounds was measured and used in IC50 determination. Recombinant protein complex CDK4/Cyclin D1, expressed from insect cell, was purchased from ProQinase. Testing compounds were dissolved in DMSO at 1 mM and tested in 9-dose IC50 mode. The reaction mixture was prepared by mixing CDK4/CyclinD1 (1 nM final), ULight-4E-BP1 (100 nM final, Perkinelmer, TRF0128-D), and ATP (2 mM final) in assay buffer (20 mM of HEPES pH 7.4, 1 mM of EGTA, 0.05% BSA, 0.005% Tween 20, and 1 mM TCEP). The compound of interest in DMSO was added to each well in 3-fold serial dilution by the dispenser (TECAN D300E) to make a 9.9 μL of reaction mixture. After 20 minutes preincubation at room temperature, 0.1 μL MgCl2 (10 mM final) was added to initiate the reaction. Following a 45 minute incubation at 37° C., the reaction was stopped by addition of 2 μL of quenching buffer consisting of Lance detection buffer (Perkinelmer CR97-100C), LANCE Ultra Europium-anti-P-4E-BP1 (Perkinelmer, TRF0216-D), EDTA, and incubated at room temperature for additional 60 minutes in dark. The reaction signal was measured by Envision multimode plate reader (PerkinElmer, 2102-0010). IC50 values were determined by fitting the data to the standard 4 parameters with Hill Slope using GraphPad Prism software.

[2] = target: CDK2/Cyclin E2 (Homo sapiens, UniProt P24941); experiment: CDK2/CyclinE2 Enzymatic Activity Assay (TR-FRET); type: biochemical; settings: CDK2/CyclinE2 1 nM, ATP 1 mM, read-out: CDK2_El IC50
Procedure: CDK2/CyclinE2 Enzymatic Activity Assay
The inhibitory activity of compounds was evaluated in vitro using TR-FRET assay with white 384-well low volume microplate (Greiner Bio-One). CDK2/Cyclin E2 catalyzed phosphorylation of peptide in the presence and absence of compounds was measured and used in IC50 determination. Recombinant protein complex CDK2/Cyclin E2, expressed from insect cell, was purchased from ProQinase. Testing compounds were dissolved in DMSO at 1 mM and tested in 9-dose IC50 mode. The reaction mixture was prepared by mixing CDK2/CyclinE2 (1 nM final), ULight-4E-BP1 (50 nM final, Perkinelmer, TRF0128-D), and ATP (1 mM final) in assay buffer (20 mM of HEPES pH 7.4, 1 mM of EGTA, 0.05% BSA, 0.005% Tween 20, and 1 mM TCEP). The compound of interest in DMSO was added to each well in 3-fold serial dilution by dispenser (TECAN D300E) to make a 9.9 μL of reaction mixture. After 20 minutes preincubation at room temperature, 0.1 μL MgCl2 (10 mM final) was added to initiate the reaction. Following a 45 minute incubation at 37° C., the reaction was stopped by addition of 2 μL of quenching buffer consisting of Lance detection buffer (Perkinelmer CR97-100C), LANCE Ultra Europium-anti-P-4E-BP1 (Perkinelmer, TRF0216-D), EDTA, and incubate at room temperature for additional 60 minutes in the dark. The reaction signal was measured by Envision multimode plate reader (PerkinElmer, 2102-0010). IC50 values were determined by fitting the data to the standard 4 parameters with Hill Slope using GraphPad Prism software.

[3] = test system: pRB in OVCAR3 cells; experiment: pRB ICW Assay in OVCAR3 Cells; type: cell-based; settings: Homo sapiens, OVCAR-3, incubated with compound for 2 hours, read-out: OVCAR3 p-RB ICW IC50
Procedure: pRB ICW Assay in OVCAR3 Cells
OVCAR3 cells were maintained in RPMI (Corning, Catalog #: 10-040-CV) supplemented with 10% v/v FBS (Gibco, Catalog #: 26140-079), 1% v/v Penicillin Streptomycin (Gibco, Catalog #15140-122.) OVCAR3 cells grown at log phase were trypsinized, counted, and resuspended in fresh medium to reach a final density of 6.7e4 cells/mL and 75 μL of culture were dispensed into a 384-well plate (Falcon, cat #353962) using a Multidrop Combi dispenser (Thermo Scientific). The next day, compounds were dispensed as a 9-point, ½ log serial dilution using a Tecan digital dispenser (D300e), and cells were incubated with compound for 2 hours in a humidified incubator at 37° C. A reference compound at a final concentration of 10 μM was used as a control for maximum inhibition. Each compound was tested in duplicates for each experiment. At the end of the incubation, 25 μL of 16% paraformaldehyde (Electron Microscopy, cat #15710) was slowly added to each well and the plate was incubated at room temperature (RT) for 30 minutes to fix cells. Cells were then permeabilized by incubating with 50 μL/well of wash buffer (lx PBS with 0.1% Triton X-100) 5×5 minutes, followed by 1 hour blocking with 30 μL/well of Odyssey blocking buffer (Li—COR, cat #927-40000), at RT. Anti-phosphor RB antibody (Cell signaling 8516S) was diluted 1:1000 in Odyssey blocking buffer and 20 μL was added to all wells and incubated overnight in 4° C. with gently rocking. The next day, cells were washed 5×5 min with 50 μL/well of wash buffer, followed with 1 hour incubation with secondary antibody and DRAQ5 diluted in Odyssey blocking buffer (1:500 dilution for secondary antibody and 1:2000 dilution for DRAQ5), 5×5 min washes, and one last wash with water. Plates were dried in 37° C. oven for 5 minutes and scanned using Li—COR Odyssey CLx imaging system to acquire intensities at 700 and 800 nm channels.

T1 sequence (P11802 whole entry): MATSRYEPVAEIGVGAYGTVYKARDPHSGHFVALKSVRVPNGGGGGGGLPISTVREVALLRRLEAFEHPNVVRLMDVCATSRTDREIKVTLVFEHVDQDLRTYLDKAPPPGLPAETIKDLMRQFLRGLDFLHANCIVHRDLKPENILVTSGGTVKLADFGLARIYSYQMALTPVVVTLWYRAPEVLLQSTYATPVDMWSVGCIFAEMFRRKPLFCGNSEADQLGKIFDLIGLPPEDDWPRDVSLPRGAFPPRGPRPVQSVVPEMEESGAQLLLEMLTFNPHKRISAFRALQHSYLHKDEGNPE
T1 sequence (P24385 whole entry partner): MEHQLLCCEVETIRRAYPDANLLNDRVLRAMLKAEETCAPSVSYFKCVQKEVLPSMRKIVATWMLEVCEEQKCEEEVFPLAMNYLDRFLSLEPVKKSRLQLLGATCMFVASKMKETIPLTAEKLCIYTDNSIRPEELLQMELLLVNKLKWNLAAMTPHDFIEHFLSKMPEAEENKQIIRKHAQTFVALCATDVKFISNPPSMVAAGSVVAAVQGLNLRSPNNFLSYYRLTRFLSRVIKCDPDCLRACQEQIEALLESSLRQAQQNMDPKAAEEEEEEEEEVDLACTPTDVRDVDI

IC50 [1] [nM] | IC50 [2] [nM] | IC50 [3] [nM] | SMILES
≤ 100 | ≤ 100 | ≤ 100 | CS(=O)(=O)N1CCC(Nc2ncc(C(F)(F)F)c(-c3cc4c(s3)C3(C5CC5)CCCN3C4=O)n2)CC1 (stereo not drawn) [Example 22, 8a-Cyclopropyl-2-(2-((1-(methylsulfonyl)piperidin-4-yl)amino)-5-(trifluoromethyl)pyrimidin-4-yl)-6,7,8,8a-tetrahydro-4H-thieno[2,3-a]pyrrolizin-4-one]
≤ 100 | ≤ 100 | ≤ 100 | CCC12CC(N)CN1C(=O)c1cc(-c3nc(NC4CCN(S(C)(=O)=O)CC4)ncc3C(F)(F)F)sc12 (stereo not drawn) [Example 40, 7-Amino-8a-ethyl-2-(2-((1-(methylsulfonyl)piperidin-4-yl)amino)-5-(trifluoromethyl)pyrimidin-4-yl)-6,7,8,8a-tetrahydro-4H-thieno[2,3-a]pyrrolizin-4-one]
≤ 100 | ≤ 100 | 100 to 500 | CS(=O)(=O)N1CCC(Nc2ncc(C(F)(F)F)c(-c3cc4c(s3)C3(C5CC(F)(F)C5)CCCN3C4=O)n2)CC1 (stereo not drawn) [Example 24, 8a-(3,3-Difluorocyclobutyl)-2-(2-((1-(methylsulfonyl)piperidin-4-yl)amino)-5-(trifluoromethyl)pyrimidin-4-yl)-6,7,8,8a-tetrahydro-4H-thieno[2,3-a]pyrrolizin-4-one]
≤ 100 | ≤ 100 | 100 to 500 | CS(=O)(=O)N1CCC(Nc2ncc(C(F)(F)F)c(-c3cc4c(s3)C3(CO)CCCN3C4=O)n2)CC1 (stereo not drawn) [Example 17, 8a-(Hydroxymethyl)-2-(2-((1-(methylsulfonyl)piperidin-4-yl)amino)-5-(trifluoromethyl)pyrimidin-4-yl)-6,7,8,8a-tetrahydro-4H-thieno[2,3-a]pyrrolizin-4-one]

Further lines, the compound ahead of its results:

SMILES | IC50 [1] [nM] | IC50 [2] [nM] | IC50 [3] [nM]
CCC12CC(C)(O)CN1C(=O)c1cc(-c3nc(NC4CCN(S(C)(=O)=O)CC4)ncc3C(F)(F)F)sc12 (stereo not drawn) [Example 34, 8a-Ethyl-7-hydroxy-7-methyl-2-(2-((1-(methylsulfonyl)piperidin-4-yl)amino)-5-(trifluoromethyl)pyrimidin-4-yl)-6,7,8,8a-tetrahydro-4H-thieno[2,3-a]pyrrolizin-4-one] | ≤ 100 | ≤ 100 | ≤ 100
CCC12CC(N(C)C)CN1C(=O)c1cc(-c3nc(NC4CCN(S(=O)(=O)c5cnn(C)c5)CC4)ncc3C(F)(F)F)sc12 (stereo not drawn) [Example 50, 7-(Dimethylamino)-8a-ethyl-2-(2-((1-((1-methyl-1H-pyrazol-4-yl)sulfonyl)piperidin-4-yl)amino)-5-(trifluoromethyl)pyrimidin-4-yl)-6,7,8,8a-tetrahydro-4H-thieno[2,3-a]pyrrolizin-4-one] | ≤ 100 | ≤ 100 | ≤ 100
CC(C)C12CC(O)CN1C(=O)c1cc(-c3nc(NC4CCN(S(C)(=O)=O)CC4)ncc3C(F)(F)F)sc12 (stereo not drawn) [Example 29, 7-Hydroxy-8a-isopropyl-2-(2-((1-(methylsulfonyl)piperidin-4-yl)amino)-5-(trifluoromethyl)pyrimidin-4-yl)-6,7,8,8a-tetrahydro-4H-thieno[2,3-a]pyrrolizin-4-one] | ≤ 100 | ≤ 100 | ≤ 100
CC12CCCCN1C(=O)c1cc(-c3nc(NC4CCN(S(C)(=O)=O)CC4)ncc3F)sc12 (stereo not drawn) [Example 6, 2-(5-Fluoro-2-((1-(methylsulfonyl)piperidin-4-yl)amino)pyrimidin-4-yl)-9a-methyl-7,8,9,9a-tetrahydrothieno[2,3-a]indolizin-4(6H)-one] | ≤ 100 | ≤ 100 | ≤ 100
CCC12CCCN1C(=O)c1cc(-c3nc(NC4CCN(S(=O)(=O)c5cnn(C)c5)CC4)ncc3C(F)(F)F)sc12 (stereo not drawn) [Example 37, 8a-Ethyl-2-(2-((1-((1-methyl-1H-pyrazol-4-yl)sulfonyl)piperidin-4-yl)amino)-5-(trifluoromethyl)pyrimidin-4-yl)-6,7,8,8a-tetrahydro-4H-thieno[2,3-a]pyrrolizin-4-one] | ≤ 100 | ≤ 100 | ≤ 100
